According to patent US20250026770A1, “NOVEL BORONSOME FACILITATING DIAGNOSIS AND TREATMENT” (PEKING UNIVERSITY, priority 2021, published 2025):

Test system: DNA repair system
Assay: γ-h2ax staining
Source text: In terms of integration of radiotherapy and chemotherapy, the preferred drug for encapsulation was Doxorubicin. […] Subsequently, we considered that if we could start from the principles of BNCT and selected individual drugs that disrupt the DNA replication process, its efficacy could be further enhanced. Therefore, a poly(ADP-ribose)polymerase (PARP) inhibitor (olaparib) was selected.

## O=C(c1cc(Cc2n[nH]c(=O)c3ccccc23)ccc1F)N1CCN(C(=O)C2CC2)CC1 [olaparib]
  Interference on the DNA repair system: verified its interference on the DNA repair system
